According to patent US4182769A, “Anti-inflammatory 1-substituted-4,5-diaryl-2-(substituted-thio) imidazoles and their corresponding sulfoxides and sulfones” (E. I. Du Pont de Nemours and Company, priority 1978, dated 1980):
Where two headings read alike, the source gives them in different places.

System: adjuvant-induced arthritis in rats
Test: Established Adjuvant-Induced Arthritis in Rats (A.A.)
Format: in vivo, Charles River Lewis male rats
Conditions: for ED50: Rattus norvegicus, read-out: A.A. ED50 % (ED50% decrease from control paw volume)
[1] = oral, 7 daily doses, rats, determined as % paw volume reduction from control (uninjected, left hind paw)

Compound	ED50 [1] [mg/kg]	other results
CC(=O)Oc1ccccc1C(=O)O [Aspirin, reference compound]	–	ED50 (po): 305 mg/kg
FC(F)(F)Sc1nc(-c2ccccc2)c(-c2ccccc2)n1COCc1ccccc1 [Example 1, 1-Benzyloxymethyl-4,5-diphenyl-2-trifluoromethylthioimidazole]	> 10	% paw volume reduction from control (@ 10 mg/Kg, oral, rats): 34%
FC(F)C(F)(F)Sc1nc(-c2ccccc2)c(-c2ccccc2)n1COCc1ccccc1 [Example 2, 1-Benzyloxymethyl-4,5-diphenyl-2-(1,1,2,2-tetrafluoroethylthio)imidazole]	3.7	–
CCOC(=O)n1c(SC(F)(F)C(F)F)nc(-c2ccccc2)c1-c1ccccc1 [Example 3, 4,5-Diphenyl-1-ethoxycarbonyl-2-(1,1,2,2-tetrafluoroethylthio)imidazole]	2.3	–
O=S(=O)(c1nc(-c2ccccc2)c(-c2ccccc2)n1COCc1ccccc1)C(F)(F)C(F)F [Example 4, 1-Benzyloxymethyl-4,5-diphenyl-2-(1,1,2,2-tetrafluoroethylsulfonyl)imidazole]	1.3	–
FC(F)(F)Sc1nc(-c2ccccc2)c(-c2ccccc2)n1C1CCCCO1 (stereo not drawn) [Example 5, 4,5-Diphenyl-1-(2-tetrahydropyranyl)-2-trifluoromethylthiomidazole]	18	–
CCOC(=O)n1c(SC(F)(F)C(F)F)nc(-c2ccc(F)cc2)c1-c1ccc(F)cc1 [Example 6, 1-Ethoxycarbonyl-4,5-bis(4-fluorophenyl)-2-(1,1,2,2-tetrafluoroethylthio)imidazole]	0.15	–
Cn1c(S(=O)(=O)C(F)(F)C(F)F)nc(-c2ccc(F)cc2)c1-c1ccc(F)cc1 [Example 8, 4,5-bis(4-Fluorophenyl)-1-methyl-2-(1,1,2,2-tetrafluoroethylsulfonyl)imidazole]	1	–
CN(C)C(=S)n1c(SC(F)(F)C(F)F)nc(-c2ccccc2)c1-c1ccccc1 [Example 9, 1-(N,N-Dimethylthiocarbamoyl)-4,5-diphenyl-2-(1,1,2,2-tetrafluoroethylthio)imidazole]	< 15	% paw volume reduction from control (@ 15 mg/Kg, oral, rats): 53%
CNC(=O)N(C)C(=O)n1c(SC(F)(F)C(F)F)nc(-c2ccccc2)c1-c1ccccc1 [Example 11, N-Methyl-N-(methylaminocarbonyl)-4,5-diphenyl-2-(1,1,2,2-tetrafluoroethylthio)imidazole-1-carboxamide]	1.8	–
O=C(OCc1ccccc1)n1c(SC(F)(F)C(F)F)nc(-c2ccccc2)c1-c1ccccc1 [Example 12, 1-Benzyloxycarbonyl-4,5-diphenyl-2-(1,1,2,2-tetrafluoroethylthio)imidazole]	< 25	% paw volume reduction from control (@ 25 mg/Kg, oral, rats): 69%
CC(C)(C)C(=O)OCn1c(S(=O)(=O)C(F)(F)C(F)F)nc(-c2ccc(F)cc2)c1-c1ccc(F)cc1 [Example 13, 4,5-bis(4-Fluorophenyl)-1-(pivaloyloxymethyl)-2-(1,1,2,2-tetrafluoroethylsulfonyl)imidazole]	1.2	–
O=S(=O)(c1ccccc1)n1c(SC(F)(F)C(F)F)nc(-c2ccccc2)c1-c1ccccc1 [Example 14, 1-Benzenesulfonyl-4,5-diphenyl-2-(1,1,2,2-tetrafluoroethylthio)imidazole]	~35	–
CC(=O)n1c(SC(F)(F)C(F)F)nc(-c2ccccc2)c1-c1ccccc1 [Example 15, 1-Acetyl-4,5-diphenyl-2-(1,1,2,2-tetrafluoroethylthio)imidazole]	0.9	–
FC(F)C(F)(F)Sc1nc(-c2ccccc2)c(-c2ccccc2)n1C1CCCO1 (stereo not drawn) [Example 16, 4,5-Diphenyl-2-(1,1,2,2-tetrafluoroethylthio)-1-(2-tetrahydrofuranyl)imidazole]	2.7	–
O=S(=O)(c1ccccc1)n1c(SC(F)(F)F)nc(-c2ccc(F)cc2)c1-c1ccc(F)cc1 [Example 17, 1-Benzenesulfonyl-4,5-bis(4-fluorophenyl)-2-(trifluoromethylthio)imidazole]	0.18	–
CC(C)n1c(SC(F)(F)C(F)F)nc(-c2ccc(F)cc2)c1-c1ccc(F)cc1 [Example 18, 4,5-bis(4-Fluorophenyl)-1-isopropyl-2-(1,1,2,2-tetrafluoroethylthio)imidazole]	10	–
Cn1c(SC(F)(F)C(F)F)nc(-c2ccc(F)cc2)c1-c1ccc(F)cc1 [Example 19]	2.3	–

Compound	ED50 [1] [mg/kg]	other results
CCn1c(SC(F)(F)C(F)F)nc(-c2ccc(F)cc2)c1-c1ccc(F)cc1 [Example 20]	3	–
CCCn1c(SC(F)(F)C(F)F)nc(-c2ccc(F)cc2)c1-c1ccc(F)cc1 [Example 21]	14	–
C=CCn1c(SC(F)(F)C(F)F)nc(-c2ccc(F)cc2)c1-c1ccc(F)cc1 [Example 22]	1.3	–
CCn1c(S(=O)(=O)C(F)(F)C(F)F)nc(-c2ccc(F)cc2)c1-c1ccc(F)cc1 [Example 23]	4.8	–
CCCn1c(S(=O)(=O)C(F)(F)C(F)F)nc(-c2ccc(F)cc2)c1-c1ccc(F)cc1 [Example 24]	> 9	% paw volume reduction from control (@ 9 mg/Kg, oral, rats): 33%
CCCCn1c(S(=O)(=O)C(F)(F)C(F)F)nc(-c2ccc(F)cc2)c1-c1ccc(F)cc1 [Example 25]	5	–
C=CCn1c(S(=O)(=O)C(F)(F)C(F)F)nc(-c2ccc(F)cc2)c1-c1ccc(F)cc1 [Example 26]	2	–
CN(C)CCn1c(S(=O)(=O)C(F)(F)C(F)F)nc(-c2ccc(F)cc2)c1-c1ccc(F)cc1 [Example 27]	< 7	% paw volume reduction from control (@ 7 mg/Kg, oral, rats): 76%
Cn1c(SC(F)(F)F)nc(-c2ccc(F)cc2)c1-c1ccc(F)cc1 [Example 28]	2.1	–
Cn1c(S(=O)(=O)C(F)(F)F)nc(-c2ccc(F)cc2)c1-c1ccc(F)cc1 [Example 29]	> 3	% paw volume reduction from control (@ 3 mg/Kg, oral, rats): 33%
COc1ccc(-c2nc(S(=O)(=O)C(F)(F)CF)n(C)c2-c2ccc(OC)cc2)cc1 [Example 31]	> 20	% paw volume reduction from control (@ 20 mg/Kg, oral, rats): 36%
CS(=O)(=O)n1c(SC(F)(F)C(F)F)nc(-c2ccccc2)c1-c1ccccc1 [Example 32]	~21	–
O=C(c1ccccc1)n1c(SC(F)(F)C(F)F)nc(-c2ccccc2)c1-c1ccccc1 [Example 34]	2.3	–
CC(C)Cc1ccc(C(C)C(=O)O)cc1 (stereo not drawn) [Ibuprofen, reference compound]	100	–
COc1ccc2c(c1)c(CC(=O)O)c(C)n2C(=O)c1ccc(Cl)cc1 [Indomethacin, reference compound]	–	ED50 (po): 0.3 mg/kg
CCCCC1C(=O)N(c2ccccc2)N(c2ccccc2)C1=O [Phenylbutazone, reference compound]	10	–
Mixture of 1-Ethoxycarbonyl-4-(4-fluorophenyl)-5-phenyl-2-(1,1,2,2-tetrafluoroethylthio)imidazole and 1-Ethoxycarbonyl-5-(4-fluorophenyl)-4-phenyl-2-(1,1,2,2-tetrafluoroethylthio)imidazole [Example 7]	–	A.A. ED50 % (ED50% decrease from control paw volume) [1]: 0.65 mg/kg
